Assay results as given in PMC6983068, “Identifying Ortholog Selective Fragment Molecules for Bacterial Glutaredoxins by NMR and Affinity Enhancement by Modification with an Acrylamide Warhead” (Molecules, 2019).

Legend:
BrmGRX = biological target: T1, BrmGRX (Brucella melitensis, UniProt Q8YJA2); test: biochemical; format: binding
T1 construct: gene BMEI0184

hGRX1 = biological target: T2, hGRX1 (Homo sapiens, UniProt P35754); format: binding; conditions: read-out: hGRX1 Kd ± S.D.
T2 sequence (P35754 2-106): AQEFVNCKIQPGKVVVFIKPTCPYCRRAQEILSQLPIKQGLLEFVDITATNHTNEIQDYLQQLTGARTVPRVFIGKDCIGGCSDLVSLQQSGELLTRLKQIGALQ

PaGRX = biological target: T3, PaGRX (Pseudomonas aeruginosa, UniProt Q9HU55); test: biochemical
T3 construct: gene grx
T3 sequence (Q9HU55 whole entry): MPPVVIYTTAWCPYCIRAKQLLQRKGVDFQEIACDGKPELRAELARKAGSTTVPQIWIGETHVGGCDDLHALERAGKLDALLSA

T1 sequence (Q8YJA2 1-92): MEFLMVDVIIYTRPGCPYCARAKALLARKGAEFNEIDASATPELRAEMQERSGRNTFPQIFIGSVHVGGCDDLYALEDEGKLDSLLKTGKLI

For `O=C(O)c1cc(-c2ccco2)[nH]n1` [RK104], the Kd (BrmGRX) was 900 ± 150 µM, the Kd (hGRX1) was 2890 ± 470 µM and the Kd (PaGRX) was 720 ± 160 µM.

Work on `Cn1nc(-c2ccco2)cc1C(=O)O` [RK144] yielded a Kd (BrmGRX) of 5240 ± 920 µM, a Kd (hGRX1) of 5420 ± 900 µM and a Kd (PaGRX) of 1920 ± 420 µM.

In the case of `O=C(O)c1ccc(-n2cccn2)cc1` [RK192], the Kd (BrmGRX) is reported as 5560 ± 510 µM, the Kd (hGRX1) is reported as 5050 ± 1270 µM and the Kd (PaGRX) is reported as 5260 ± 1120 µM.

`O=C(O)c1ccc(-n2cccc2)cc1` [RK207] was tested, and the Kd (hGRX1) was 2450 ± 520 µM and the Kd (PaGRX) was 1900 ± 340 µM.

For `Cc1cc2ncc(C(=O)O)c(C)n2n1` [RK208], the Kd (BrmGRX) was 2280 ± 300 µM, the Kd (hGRX1) was 1610 ± 190 µM and the Kd (PaGRX) was 560 ± 80 µM.

In the case of `Cn1nc(C(=O)O)cc1-c1ccccc1` [RK246], the Kd (hGRX1) is reported as 5220 ± 1160 µM and the Kd (PaGRX) is reported as 8480 ± 2060 µM.

Work on `CN1CCN(C)c2cc(CN)ccc21` [RK395] yielded a Kd (BrmGRX) of 5490 ± 3220 µM, a Kd (hGRX1) of 1860 ± 1150 µM and a Kd (PaGRX) of 510 ± 370 µM.
